Where two headings read alike, the source gives them in different places. Starred links: 1 amine or outer side, 2 acyl side, 3 side chain; linkers in the order of their positions; H or OH if unused. Positions of bridges follow the written chain, without caps; N, C: chain ends. Non-standard residues stand in square brackets, D forms with d. Residues, ends and D or L forms follow the SMILES beside them. *: point of attachment. Ala(1-CH2CO2H-4-piperidyl) = N[C@@H](CC1CCN(CC(=O)O)CC1)C(=O)O; X13 = O=C(O)c1ccc(-n2cc(C[C@H](N[*:1])C(=O)[*:2])c3ccccc32)cc1; Phe(3-OCH2COOH) = N[C@@H](Cc1cccc(OCC(=O)O)c1)C(=O)O; Trp(1-Ph) = N[C@@H](Cc1cn(-c2ccccc2)c2ccccc12)C(=O)O; NMePhe(3-Ph) = CN[C@@H](Cc1cccc(-c2ccccc2)c1)C(=O)O; NMePhe(4-CH2NH2) = CN[C@@H](Cc1ccc(CN)cc1)C(=O)O; Phe(4-COOH) = N[C@@H](Cc1ccc(C(=O)O)cc1)C(=O)O; Trp(7-aza) = N[C@@H](Cc1c[nH]c2ncccc12)C(=O)O; Piperazinyl(4-CH2COOH) = O=C(O)CN1CCN(*)CC1; Gly(N(CH2)3COOH) = O=C(O)CCCNCC(=O)O; X1 = CCCCCCC[C@H](N[*:1])C(=O)[*:2]; NMeF = CN[C@@H](Cc1ccccc1)C(=O)O; NMeE = CN[C@@H](CCC(=O)O)C(=O)O; NMeA = CN[C@@H](C)C(=O)O; Sar = CNCC(=O)O

The target in one experiment is T1, Myostatin (Homo sapiens, UniProt O14793).
T1 construct: active myostatin (also called mature myostatin) is a homodimer consisting of two C-terminal growth factor domains; purchased R&D systems 788-G8/CF
T1 sequence (O14793 267-375): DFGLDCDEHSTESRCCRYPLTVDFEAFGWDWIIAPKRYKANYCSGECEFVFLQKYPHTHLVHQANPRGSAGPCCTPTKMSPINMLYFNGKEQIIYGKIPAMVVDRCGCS
Put plainly: HepG2 reporter gene assay, Evaluation Procedure (2): 2-concentrations assay, myostatin inhibition. Format: cell-based. Conditions: HepG2. In a few lines: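 Myostatin inhibition was measured in a luciferase reporter assay using HepG2 cells transfected with a pGL3 vector containing 12 CAGA repeats upstream of luciferase. After 20 to 24 hours with 10 ng/mL myostatin, cells received One-Glo:PBS (1:1) at 100 µL/well, were shaken for 5 min, and 20 µL/well was moved to 384-well plates and read on an Envision 2104.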
In general terms: A reporter such as luciferase makes a cellular process visible.

The target in another experiment is T2, GDF-11 (Homo sapiens, UniProt O95390).
T2 construct: purchased R&D systems 1958-GD-G8/CF
T2 sequence (O95390 299-407): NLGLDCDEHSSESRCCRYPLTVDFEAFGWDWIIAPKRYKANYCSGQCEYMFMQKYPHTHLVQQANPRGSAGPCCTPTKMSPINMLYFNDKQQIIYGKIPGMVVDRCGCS
The experiment can be described thus: HepG2 reporter gene assay, Evaluation Procedure (2): 2-concentrations assay, GDF-11 inhibition. The experiment is classed as cell-based. The note with it: for inhibition at 0.03 µM: HepG2, peptide 30nM, read-out: GDF11 Inhibition 30nM; for inhibition at 0.03 µM / inhibition at 0.1 µM: GDF-11 10 ng/mL; for inhibition at 0.1 µM: HepG2, peptide 100nM, read-out: GDF11 Inhibition 100nM; for inhibition: read-out: inhibition rate (GDF-11 inhibition assay). In outline:
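HepG2 cells carrying the transfected pGL3(CAGA)12-luc reporter, a pGL3 vector with luciferase placed downstream of 12 CAGA repeats, were stimulated with GDF-11 at a final 10 ng/mL together with test peptide. Blank wells received no GDF-11 and no peptide. Plates were incubated 20 to 24 hours at 37°C with 5% CO2. Luminescence from One-Glo substrate was read to calculate percent inhibition.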

The mark [1] stands for this setting: peptide 30nM, Myostatin 10 ng/mL, read-out: Myostatin Inhibition 30nM.
Where [2] appears, read: peptide 100nM, Myostatin 10 ng/mL, read-out: Myostatin Inhibition 100nM.
[3] abbreviates: Table 7-3/7-4, myostatin 10 ng/mL, peptide at the higher of the 2 concentrations, read-out: inhibition rate (myostatin inhibition assay).
Where [4] appears, read: Table 7-3/7-4, myostatin 10 ng/mL, peptide at the lower of the 2 concentrations, read-out: inhibition rate (myostatin inhibition assay).
Where [5] appears, read: HepG2, first GDF-11 column of Table 7-3/7-4, GDF-11 10 ng/mL, peptide at the lower of the 2 concentrations.
Setting [6] is: HepG2, second GDF-11 column of Table 7-3/7-4, GDF-11 10 ng/mL, peptide at the higher of the 2 concentrations.

As for `CCCCCCC[C@@H]1NC(=O)[C@H](Cc2ccccc2)N(C)C(=O)[C@H](CCCNC(=N)N)NC(=O)[C@H](Cc2ccc(C(=O)O)cc2)NC(=O)[C@H](Cc2cccc(OCC(=O)O)c2)NC(=O)CN(C)C(=O)[C@H]([C@@H](C)CC)NC(=O)[C@H](Cc2ccccc2)N(C)C(=O)[C@H](Cc2ccc(O)cc2)NC(=O)[C@H](Cc2c[nH]c3ccccc23)NC(=O)[C@H](C)NC(=O)[C@H](C)NC(=O)CSC[C@@H](C(=O)N2CCN(CC(=O)O)CC2)NC(=O)[C@H](Cc2ccccc2)N(C)C(=O)[C@H](C)N(C)C1=O` [Myostatin_99_v220] ({CH2CO}-AAWY[NMeF]I[Sar][Phe(3-OCH2COOH)][Phe(4-COOH)]R[NMeF][X1][NMeA][NMeF]C-{Piperazinyl(4-CH2COOH)}; thioether N-15), the inhibition (as a rule, the share of the control response that was lost under treatment) at 0.03 µM on Myostatin (setting [1]) was 95%; on GDF-11 it was 0%. Also, the inhibition at 0.1 µM at Myostatin (setting [2]) turned out to be 99%; on GDF-11, 5%.

As to `CCCCCCC[C@@H]1NC(=O)[C@H](Cc2ccccc2)N(C)C(=O)[C@H](CCCNC(=N)N)NC(=O)[C@H](Cc2ccc(C(=O)O)cc2)NC(=O)[C@H](CC2CCN(CC(=O)O)CC2)NC(=O)CN(C)C(=O)[C@H]([C@@H](C)CC)NC(=O)[C@H](Cc2ccccc2)N(C)C(=O)[C@H](Cc2ccc(O)cc2)NC(=O)[C@H](Cc2c[nH]c3ccccc23)NC(=O)[C@H](C)NC(=O)CN(CCCC(=O)O)C(=O)CSC[C@H](C(=O)O)NC(=O)[C@H](Cc2ccccc2)N(C)C(=O)[C@H](C)N(C)C1=O` [Myostatin_99_v233] ({CH2CO}-[Gly(N(CH2)3COOH)]AWY[NMeF]I[Sar][Ala(1-CH2CO2H-4-piperidyl)][Phe(4-COOH)]R[NMeF][X1][NMeA][NMeF][dC]-OH; thioether N-15), the results for the inhibition at 0.03 µM at Myostatin (setting [1]) and at GDF-11 were 50% and 8%, respectively. For the same molecule, the values for the inhibition at 0.1 µM on Myostatin (setting [2]) and on GDF-11 were 85% and 0%, respectively.

Regarding `CC[C@H](C)[C@@H]1NC(=O)[C@H](Cc2ccccc2)N(C)C(=O)[C@H](Cc2ccc(O)cc2)NC(=O)[C@H](Cc2c[nH]c3ncccc23)NC(=O)[C@H](C)NC(=O)[C@H](C)NC(=O)CSC[C@H](C(=O)N[C@H](CO)C(=O)N[C@H](CO)C(=O)N[C@H](CO)C(=O)N[C@H](CCCCN)C(=O)O)NC(=O)[C@H](Cc2ccccc2)N(C)C(=O)[C@H](C)N(C)C(=O)[C@H](CC(C)C)NC(=O)[C@H](Cc2ccccc2)N(C)C(=O)[C@H](CCCNC(=N)N)NC(=O)[C@H](Cc2ccc(C(=O)O)cc2)NC(=O)[C@H](Cc2ccccc2)NC(=O)CN(C)C1=O` [Myostatin_99_v35] ({CH2CO}-AA[Trp(7-aza)]Y[NMeF]I[Sar]F[Phe(4-COOH)]R[NMeF]L[NMeA][NMeF][dC][dS][dS][dS][dK]-OH; thioether N-15), the inhibition at 0.03 µM on Myostatin (setting [1]) stood at 95%; on GDF-11 it was 13%. Also, the inhibition at 0.1 µM on Myostatin (setting [2]) was determined as 100%; at GDF-11, 36%.

As for `CCCCCCC[C@@H]1NC(=O)[C@H](Cc2ccccc2)N(C)C(=O)[C@H](CCCNC(=N)N)NC(=O)[C@H](Cc2ccc(C(=O)O)cc2)NC(=O)[C@H](Cc2cccc(OCC(=O)O)c2)NC(=O)[C@H](C)N(C)C(=O)[C@H]([C@@H](C)CC)NC(=O)[C@H](Cc2ccccc2)N(C)C(=O)[C@H](Cc2ccc(O)cc2)NC(=O)[C@H](Cc2cn(-c3ccccc3)c3ccccc23)NC(=O)[C@H](C)NC(=O)[C@H](C)NC(=O)CSC[C@H](C(=O)N2CCN(CC(=O)O)CC2)NC(=O)[C@H](Cc2cccc(-c3ccccc3)c2)N(C)C(=O)[C@H](CCC(=O)O)N(C)C1=O` [Myostatin_99_v330] ({CH2CO}-AA[Trp(1-Ph)]Y[NMeF]I[NMeA][Phe(3-OCH2COOH)][Phe(4-COOH)]R[NMeF][X1][NMeE][NMePhe(3-Ph)][dC]-{Piperazinyl(4-CH2COOH)}; thioether N-15), the inhibition at 0.1 µM at Myostatin (setting [3]) amounted to 100%. The inhibition at 0.03 µM at Myostatin (setting [4]) was found to be 100%. Besides, the inhibition at GDF-11 (setting [5]) and at GDF-11 (setting [6]) was 0% in each case.

For the molecule `CC[C@H](C)[C@@H]1NC(=O)[C@H](Cc2ccccc2)N(C)C(=O)[C@H](Cc2ccc(O)cc2)NC(=O)[C@H](Cc2c[nH]c3ccccc23)NC(=O)[C@H](CCCNC(=N)N)NC(=O)[C@H](C)NC(=O)CSC[C@@H](C(N)=O)NC(=O)[C@H](Cc2ccccc2)N(C)C(=O)[C@H](C)N(C)C(=O)[C@H](CC(C)C)NC(=O)[C@H](Cc2ccccc2)N(C)C(=O)[C@H](CCCNC(=N)N)NC(=O)[C@H](Cc2ccc(O)cc2)NC(=O)[C@H](Cc2ccc(O)cc2)NC(=O)CN(C)C1=O` [Myostatin_Myostatin_000099] ({CH2CO}-ARWY[NMeF]I[Sar]YYR[NMeF]L[NMeA][NMeF]C-NH2; thioether N-15), the values for the inhibition at 0.03 µM at Myostatin (setting [1]) and at GDF-11 were 56% and 0%, respectively. Besides, the figures for the inhibition at 0.1 µM on Myostatin (setting [2]) and on GDF-11 were 87% and 19%, respectively.

With `CCCCCCC[C@@H]1NC(=O)[C@H](Cc2ccccc2)N(C)C(=O)[C@H](CCCNC(=N)N)NC(=O)[C@H](Cc2ccc(C(=O)O)cc2)NC(=O)[C@H](Cc2cccc(OCC(=O)O)c2)NC(=O)CN(C)C(=O)[C@H]([C@@H](C)CC)NC(=O)[C@H](Cc2ccccc2)N(C)C(=O)[C@H](Cc2ccc(O)cc2)NC(=O)[C@H](Cc2c[nH]c3ccccc23)NC(=O)[C@H](C)NC(=O)[C@H](C)NC(=O)CSC[C@H](C(=O)N2CCN(CC(=O)O)CC2)NC(=O)[C@H](Cc2ccccc2)N(C)C(=O)[C@H](CCC(=O)O)N(C)C1=O` [Myostatin_99_v311] ({CH2CO}-AAWY[NMeF]I[Sar][Phe(3-OCH2COOH)][Phe(4-COOH)]R[NMeF][X1][NMeE][NMeF][dC]-{Piperazinyl(4-CH2COOH)}; thioether N-15), the inhibition at 0.1 µM on Myostatin (setting [3]) is 100%. In addition, on Myostatin (setting [4]), the inhibition at 0.03 µM worked out at 99%. Further, the inhibition at GDF-11 (setting [5]) worked out at 0%; on GDF-11 (setting [6]), 5%.

As for `CCCCCCC[C@@H]1NC(=O)[C@@H]2Cc3ccc(cc3)CNC(=O)CC[C@@H](C(=O)N[C@@H](C)C(=O)N[C@@H](Cc3cn(-c4ccc(C(=O)O)cc4)c4ccccc34)C(=O)N[C@@H](Cc3ccc(O)cc3)C(=O)N(C)[C@@H](Cc3ccccc3)C(=O)N[C@@H]([C@@H](C)CC)C(=O)N3CCC[C@@H]3C(=O)N[C@@H](Cc3cccc(OCC(=O)O)c3)C(=O)N[C@@H](Cc3ccc(C(=O)O)cc3)C(=O)N[C@@H](CCCNC(=N)N)C(=O)N2C)N(C)C(=O)CSC[C@H](C(=O)O)NC(=O)[C@H](Cc2ccccc2)N(C)C(=O)[C@H](C)N(C)C1=O` [Myostatin_99_v423] ({CH2CO}-[NMeE]A[X13]Y[NMeF]I[dP][Phe(3-OCH2COOH)][Phe(4-COOH)]R[NMePhe(4-CH2NH2)][X1][NMeA][NMeF][dC]-OH; lactam 1-11; thioether N-15), the inhibition at 0.1 µM on Myostatin (setting [3]) was 100%. Moreover, the inhibition at 0.03 µM at Myostatin (setting [4]) was determined as 100%. Besides, the inhibition at GDF-11 (setting [5]) and on GDF-11 (setting [6]) was 0% in each case.

The values are drawn from EP4786487A1, “PEPTIDE” (Peptidream Inc, priority 2023, dated 2025).
